Experimental data from patent publication US20090104167A1, “Prophylactic/Ameliorating Agent for Menopausal Disorder and Functional Beverage/Food” (Calpis Co., Ltd., priority 2005, published 2009).

Assays:
[1] = Lignan-metabolizing ability of microorganisms: conversion of pinoresinol to secoisolariciresinol (HPLC); parameters: key to pinoresinol to secoisolariciresinol: o indicates that the lignan was converted in 50% or more; x indicates that most of the lignan was not converted; settings: for pinoresinol to secoisolariciresinol: lignan 0.5 mM in MRS or GAM medium, culture at 37° C., HPLC
Procedure: Lignan-metabolizing abilities of various types of microorganisms were evaluated. The various microorganisms shown in the following Tables 1 to 3 were pre-cultured in MRS medium or GAM medium at 37° C. for 20 to 24 hours, and inoculated at 1 to 3% to 10 ml of MRS medium or GAM medium Du zhong lignan (pinoresinol and medioresinol) was added at a final concentration of 0.5 mM in the medium, and continued to culture at 37° C. Samples were taken at regular intervals and assayed by HPLC to monitor the conversion of lignan to secoisolariciresinol.

[2] = molecular target: T1, human estrogen receptor α (Homo sapiens, UniProt P03372); assay: Inhibition of [3H]estradiol binding to estrogen receptor α; settings: for binding inhibition rate to estrogen receptor α, inhibition rate (%): One millimolar test sample, 0.5 nM tritium-labeled estradiol, 25° C., 2 hours, pH 7.4
T1 sequence (P03372 1-595): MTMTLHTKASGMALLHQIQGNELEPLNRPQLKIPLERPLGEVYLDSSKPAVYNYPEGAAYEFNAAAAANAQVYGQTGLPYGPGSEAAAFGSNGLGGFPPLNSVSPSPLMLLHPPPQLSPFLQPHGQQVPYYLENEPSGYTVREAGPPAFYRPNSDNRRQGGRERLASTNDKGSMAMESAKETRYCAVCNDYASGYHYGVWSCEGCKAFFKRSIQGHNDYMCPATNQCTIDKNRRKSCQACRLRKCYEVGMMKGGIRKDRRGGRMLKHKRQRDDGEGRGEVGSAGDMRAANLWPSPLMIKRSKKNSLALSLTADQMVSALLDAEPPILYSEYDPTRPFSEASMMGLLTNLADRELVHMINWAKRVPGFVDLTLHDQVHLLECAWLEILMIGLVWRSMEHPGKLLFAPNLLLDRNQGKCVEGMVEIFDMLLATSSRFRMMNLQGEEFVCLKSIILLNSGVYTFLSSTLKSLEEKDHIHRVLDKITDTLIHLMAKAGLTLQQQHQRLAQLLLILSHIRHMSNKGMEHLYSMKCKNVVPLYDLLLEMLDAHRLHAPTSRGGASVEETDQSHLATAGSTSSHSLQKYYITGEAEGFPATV
Procedure: (§1) One millimolar of a test sample (pinoresinol diglycoside, pinoresinol and secoisolariciresinol) and 0.5 nM of tritium-labeled estradiol were reacted in 10 mM of tris buffer at pH 7.4 (with 0.1% BSA, 10% Glycerol, 1 mM DTT) containing a human estrogen receptor α or β at 25° C. for 2 hours. After completion of the reaction, the receptor was collected and washed to measure the amount of the tritium-labeled estradiol bound to the receptor according to a conventional method. The binding level of [^3H] Estradiol in the presence of a lignan or a metabolic intermediate was calculated with the binding of 0.5 nM of [^3H] Estradiol to the receptor as 100%, which was subtracted from 100 to define a binding inhibition rate.

[3] = molecular target: human estrogen receptor β (Homo sapiens, UniProt Q92731); assay: Inhibition of [3H]estradiol binding to estrogen receptor β; settings: One millimolar test sample, 0.5 nM tritium-labeled estradiol, 25° C., 2 hours, pH 7.4
human estrogen receptor β, sequence (Q92731 whole entry): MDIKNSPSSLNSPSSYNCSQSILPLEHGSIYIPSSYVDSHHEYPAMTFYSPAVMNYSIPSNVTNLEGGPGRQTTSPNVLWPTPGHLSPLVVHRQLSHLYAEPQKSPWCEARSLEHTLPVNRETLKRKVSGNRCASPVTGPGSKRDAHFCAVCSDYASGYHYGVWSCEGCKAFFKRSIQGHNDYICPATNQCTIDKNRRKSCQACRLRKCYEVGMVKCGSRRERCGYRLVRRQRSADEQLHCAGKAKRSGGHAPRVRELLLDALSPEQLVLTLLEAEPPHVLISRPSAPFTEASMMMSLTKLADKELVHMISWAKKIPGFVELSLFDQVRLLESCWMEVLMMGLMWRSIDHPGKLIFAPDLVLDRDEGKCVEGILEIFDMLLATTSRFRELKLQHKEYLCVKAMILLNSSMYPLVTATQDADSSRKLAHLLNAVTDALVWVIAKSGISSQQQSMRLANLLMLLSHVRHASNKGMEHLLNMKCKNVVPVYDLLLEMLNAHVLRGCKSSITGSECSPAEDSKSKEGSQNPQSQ
Procedure: as §1

Compound	pinoresinol to secoisolariciresinol [1]	binding inhibition rate to estrogen receptor α, inhibition rate (%) [2] [%]	binding inhibition rate to estrogen receptor β, inhibition rate (%) [3] [%]	also measured
Lactobacillus acidophilus	∘	–	–	ability to produce secoisolariciresinol from pinoresinol (in words) ([1]; summary of Tables 1 to 3): capable of producing secoisolariciresinol from pinoresinol
Bifidobacterium	x	–	–	–
COc1cc([C@H]2OC[C@H]3[C@@H]2CO[C@@H]3c2ccc(O[C@@H]3O[C@H](CO)[C@@H](O)[C@H](O)[C@H]3O)c(OC)c2)ccc1O[C@@H]1O[C@H](CO)[C@@H](O)[C@H](O)[C@H]1O [pinoresinol diglycoside]	–	4	5	–
pinoresinol	–	23	30	–
Lactobacillus reuteri	x	–	–	–
Lactobacillus plantarum	x	–	–	–
COc1cc(C[C@@H](CO)[C@H](CO)Cc2ccc(O)c(OC)c2)ccc1O [secoisolariciresinol]	–	43	52	binding inhibition rate to an estrogen receptor relative to pinoresinol diglycoside ([2]; estrogen receptor subtype not specified, versus pinoresinol diglycoside): ten times higher
